Patent EP4759807A1, “PROTEOLYSIS TARGETING CHIMERA COMPOUND FOR DEGRADING IRAK4 AND USE THEREOF” (Shenzhen Zhongge Biological Technology Co., Ltd., priority 2023, dated 2025)
Where a name gives a salt, the structure may show the parent alone.

How the values were obtained:
IRAK4 [1] = target: T1, IRAK4 (Homo sapiens, UniProt Q9NWZ3); experiment: Hibit fluorescence detection of proteolysis (IRAK4-HiBiT in HEK293T cells); type: cell-based; design: host or cells: HEK293T (ATCC); conditions: for Dmax: HEK-293T; for DC50: IRAK4-HiBiT, HEK293T cells, 24 h
T1 sequence (Q9NWZ3 1-460): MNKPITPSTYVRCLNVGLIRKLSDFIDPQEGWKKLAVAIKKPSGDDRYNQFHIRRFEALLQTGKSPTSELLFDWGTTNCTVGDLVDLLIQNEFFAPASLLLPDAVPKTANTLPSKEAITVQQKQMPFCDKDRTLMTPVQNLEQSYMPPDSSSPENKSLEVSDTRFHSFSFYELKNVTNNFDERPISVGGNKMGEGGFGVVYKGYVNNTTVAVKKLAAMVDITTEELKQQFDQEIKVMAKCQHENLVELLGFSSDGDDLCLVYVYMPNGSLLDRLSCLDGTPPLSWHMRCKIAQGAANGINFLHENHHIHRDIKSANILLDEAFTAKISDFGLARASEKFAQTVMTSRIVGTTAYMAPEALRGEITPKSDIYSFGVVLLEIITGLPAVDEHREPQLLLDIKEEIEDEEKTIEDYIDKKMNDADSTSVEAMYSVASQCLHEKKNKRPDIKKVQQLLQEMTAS
In short: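 Degradation read-out: luminescence from lytic HiBiT detection (15 min, room temperature) after 24 h compound exposure (37 °C, 5% CO2) of HEK293T cells transiently expressing IRAK4 fused to a HiBiT tag. Data fitted to a bell-shaped four-parameter model giving two EC50 values.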

IRAK4 [2] = target: T1, IRAK4; experiment: WB detection of proteolysis (Western Blot, THP-1 cells); type: cell-based; conditions: Western Blot, THP-1 cells, 24 h; for DC50: read-out: DC50; for Dmax: read-out: Dmax
In short: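 IRAK4 level in RIPA lysates read by Western blot with Odyssey imaging; values from bell-shaped non-linear fit with two four-parameter sections (Plateau1, Plateau2, Dip, LogEC50_1/2, nH1/2).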

| Structure (SMILES) | Dmax (IRAK4 [1]) | DC50 (IRAK4 [1]) | DC50 (IRAK4 [2]) | Dmax (IRAK4 [2]) | DC50 (IRAK4 [1]; read-out: DC50) |
| --- | --- | --- | --- | --- | --- |
| Cn1c(=O)n(C2CCC(=O)NC2=O)c2cccc(N3CCC(N4CCN(C[C@H]5CC[C@H](n6cc(-n7cc(-c8cnn9ccc(NCCC(C)(C)O)nc89)nn7)c(C(F)F)n6)CC5)CC4)CC3)c21 (some centres unmarked) [Example 125] | > 80% | < 0.5 nM | < 10 nM | > 70% |  |
| Cn1c(=O)n(C2CCC(=O)NC2=O)c2cccc(N3CCC4(CCN(C[C@H]5CC[C@H](n6cc(-n7cc(-c8cnn9ccc(N%10CCC(O)CC%10)nc89)nn7)c(C(F)F)n6)CC5)C4)CC3)c21 (some centres unmarked) [Example 139] | > 80% | < 0.5 nM | < 10 nM | > 70% |  |
| Cn1c(=O)n(C2CCC(=O)NC2=O)c2cccc(N3CCC4(CCN(C[C@H]5CC[C@H](n6cc(-n7cc(-c8cnn9ccc(N%10CCC(O)CC%10)nc89)nn7)c(C(F)F)n6)CC5)CC4)CC3)c21 (some centres unmarked) [Example 136] | > 80% | < 0.5 nM | < 10 nM | > 70% |  |
| Cn1c(=O)n(C2CCC(=O)NC2=O)c2cccc(N3CCC(N4CCN(C[C@H]5CC[C@H](n6cc(-n7cc(-c8cnn9ccc(N[C@@H]%10CCCC[C@@H]%10O)nc89)nn7)c(C(F)F)n6)CC5)CC4)CC3)c21 (some centres unmarked) [Example 155] | > 80% | < 0.5 nM | < 10 nM | > 70% |  |
| Cn1c(=O)n(C2CCC(=O)NC2=O)c2cccc(N3CCC4(CC3)CN(C[C@H]3CC[C@H](n5cc(-n6cc(-c7ccc8cc(C(N)=O)cnn78)nn6)c(C(F)F)n5)CC3)C4)c21 (some centres unmarked) [Example 64] | > 80% | < 0.5 nM | > 30 nM | 60 to 70% |  |
| Cn1c(=O)n(C2CCC(=O)NC2=O)c2cccc(N3CCN(C4CCN(C[C@H]5CC[C@H](n6cc(-n7cc(-c8cnn9ccc(N%10CCC[C@H](O)C%10)nc89)nn7)c(C(F)F)n6)CC5)CC4)CC3)c21 (some centres unmarked) [Example 144] | > 80% | < 0.5 nM | < 10 nM | > 70% |  |
| Cn1c(=O)n(C2CCC(=O)NC2=O)c2cccc(N3CCN(C[C@H]4CC[C@H](n5cc(-n6cc(-c7cnn8ccc(N9CCNCC9)nc78)nn6)c(C(F)F)n5)CC4)CC3)c21 (stereo partly drawn) [Example 132, 3-(4-(1R,4R)-4-(3-difluoromethyl)-4-(4-(5-(piperazin-1-yl)pyrazolo[1,5-a]pyrimidin-3-yl)-1H-1,2,3-triazol-1-yl)-1H-pyrazol-1-yl)cyclohexyl)methyl)piperazin-1-yl)-3-methyl-2-oxo-2,3-dihydro-1H-benzoimidazol-1-yl)piperidine-2,6-dione dihydrochloride] | > 80% | 0.5 to 1 nM | < 10 nM | 60 to 70% |  |
| Cn1c(=O)n(C2CCC(=O)NC2=O)c2cccc(N3CCC4(CCN(C[C@H]5CC[C@H](n6cc(-n7cc(-c8cnn9ccc(N%10CCNCC%10)nc89)nn7)c(C(F)F)n6)CC5)C4)CC3)c21 (some centres unmarked) [Example 128, 3-(4-(2-(((1r,4r)-4-(3-(difluoromethyl)-4-(4-(5-(piperazin-1-yl)pyrazolo[1,5-a]pyrimidin-3-yl)-1H-1,2,3-triazol-1-yl)-1H-pyrazol-1-yl)cyclohexyl)methyl)-2,8-diazaspiro[4.5]dec-8-yl)-3-methyl-2-oxo-2,3-dihydro-1H-benzo[d]imidazol-1-yl)piperidine-2,6-dione dihydrochloride] | > 80% | < 0.5 nM | < 10 nM | > 70% |  |
| Cn1c(=O)n(C2CCC(=O)NC2=O)c2cccc(N3CCC4(CCN(C[C@H]5CC[C@H](n6cc(-n7cc(-c8cnn9ccc(NCC%10CC%10)nc89)nn7)c(C(F)F)n6)CC5)CC4)CC3)c21 (some centres unmarked) [Example 108] | > 80% | < 0.5 nM | < 10 nM | > 70% |  |
| Cn1c(=O)n(C2CCC(=O)NC2=O)c2cccc(N3CCN(C[C@H]4CC[C@H](n5cc(-n6cc(-c7cnn8ccc(N9CCC[C@H](O)C9)nc78)nn6)c(C(F)F)n5)CC4)CC3)c21 (some centres unmarked) [Example 141] | > 80% | < 0.5 nM | < 10 nM | > 70% |  |
| Cn1c(=O)n(C2CCC(=O)NC2=O)c2cccc(N3CCC4(CCN(C[C@H]5CC[C@H](n6cc(-n7cc(-n8ccc9cc(C(N)=O)cnc98)nn7)c(C(F)F)n6)CC5)CC4)C3)c21 (some centres unmarked) [Example 103, 1-(1-(3-(difluoromethyl)-1-((1r,4r)-4-(2-(1-(2,6-dioxopiperidin-3-yl)-3-methyl-2-oxo-2,3-dihydro-1H-benzo[d]imidazol-4-yl)-2,8-diazaspiro[4.5]dec-8-yl)methyl)cyclohexyl)-1H-pyrazol-4-yl)-1H-1,2,3-triazol-4-yl] | > 80% | < 0.5 nM | < 10 nM | < 60% |  |
| C[C@H]1COCCN1c1ccn2ncc(-c3cn(-c4cn([C@H]5CC[C@H](CN6CCC7(CC6)CCN(c6cccc8c6n(C)c(=O)n8C6CCC(=O)NC6=O)C7)CC5)nc4C(F)F)nn3)c2n1 (some centres unmarked) [Compound 204] | 70 to 80% |  | < 10 nM | 60 to 70% | < 0.5 nM |
| Cn1c(=O)n(C2CCC(=O)NC2=O)c2cccc(N3CCC4(CCN(C[C@H]5CC[C@H](n6cc(-n7cc(-c8cnn9ccc(N%10CCC[C@H](N)C%10)nc89)nn7)c(C(F)F)n6)CC5)C4)CC3)c21 (some centres unmarked) [Example 119] | > 80% | 0.5 to 1 nM | 10 to 30 nM | > 70% |  |
| Cn1c(=O)n(C2CCC(=O)NC2=O)c2cccc(N3CCN(C4CCN(C[C@H]5CC[C@H](n6cc(-n7cc(-c8cnn9ccc(N[C@@H]%10CCCC[C@@H]%10O)nc89)nn7)c(C(F)F)n6)CC5)CC4)CC3)c21 (some centres unmarked) [Example 153] | > 80% | < 0.5 nM | < 10 nM | > 70% |  |
| Cn1c(=O)n(C2CCC(=O)NC2=O)c2cccc(N3CCC4(CCN(C[C@H]5CC[C@H](n6cc(-n7cc(-c8cnn9ccc(N[C@@H]%10CCCC[C@@H]%10O)nc89)nn7)c(C(F)F)n6)CC5)CC4)CC3)c21 (some centres unmarked) [Example 151] | > 80% | < 0.5 nM | < 10 nM | > 70% |  |
| Cn1c(=O)n(C2CCC(=O)NC2=O)c2cccc(N3CCC4(CCN(C[C@H]5CC[C@H](n6cc(-n7cc(-c8cnn9ccc(N%10CCC[C@@H](O)C%10)nc89)nn7)c(C(F)F)n6)CC5)C4)CC3)c21 (some centres unmarked) [Example 248] | > 80% | < 0.5 nM | < 10 nM | > 70% |  |
| Cn1c(=O)n(C2CCC(=O)NC2=O)c2cccc(N3CCC(N4CCN(C[C@H]5CC[C@H](n6cc(-n7cc(-c8cnn9ccc(N%10CCOCC%10)nc89)nn7)c(C(F)F)n6)CC5)CC4)CC3)c21 (some centres unmarked) [Example 34] | > 80% | < 0.5 nM | < 10 nM | 60 to 70% |  |
| Cn1c(=O)n(C2CCC(=O)NC2=O)c2cccc(N3CCN(C4CCN(C[C@H]5CC[C@H](n6cc(-n7cc(-c8cnn9ccc(N%10CCC[C@@H](O)C%10)nc89)nn7)c(C(F)F)n6)CC5)CC4)CC3)c21 (some centres unmarked) [Example 245] | > 80% | < 0.5 nM | < 10 nM | > 70% |  |
| Cn1c(=O)n(C2CCC(=O)NC2=O)c2cccc(N3CCN(C[C@H]4CC[C@H](n5cc(-n6cc(-c7cnn8ccc(N9CCC[C@@H](O)C9)nc78)nn6)c(C(F)F)n5)CC4)CC3)c21 (some centres unmarked) [Example 243] | > 80% | < 0.5 nM | < 10 nM | > 70% |  |
| Cn1c(=O)n(C2CCC(=O)NC2=O)c2cccc(N3CCC4(CCN(C[C@H]5CC[C@H](n6cc(-n7cc(-c8ccc9cc(C(N)=O)cnn89)nn7)c(C(F)F)n6)CC5)CC4)C3)c21 (some centres unmarked) [Example 62, 7-(1-(3-(difluoromethyl)-1-((1r,4r)-4-((2-(1-(2,6-dioxopiperidin-3-yl)-3-methyl-2-oxo-2,3-dihydro-1H-benzo[d]imidazol-4-yl)-2,8-diazaspiro[4.5]dec-8-yl)methyl)cyclohexyl)-1H-pyrazol-4-yl)-1H-pyrazol-1,2,3-triazol-4yl)pyrrolo[1,2-b]pyridazine-3-carboxamide] | > 80% | < 0.5 nM | < 10 nM | > 70% |  |
| C[C@H]1CN(c2cccc3c2n(C)c(=O)n3C2CCC(=O)NC2=O)CCN1C[C@H]1CC[C@H](n2cc(-n3cc(-c4cnn5ccc(N6CCC[C@H](N)C6)nc45)nn3)c(C(F)F)n2)CC1 (some centres unmarked) [Example 285] | > 80% | < 0.5 nM | > 30 nM | 60 to 70% |  |
| Cn1c(=O)n(C2CCC(=O)NC2=O)c2cccc(N[C@H]3CC[C@H](N(C)C[C@H]4CC[C@H](n5cc(-n6cc(-c7cnn8ccc(N9CCC[C@H](N)C9)nc78)nn6)c(C(F)F)n5)CC4)CC3)c21 (some centres unmarked) [Example 118] | > 80% | < 0.5 nM | 10 to 30 nM | > 70% |  |
| C[C@H]1CN(c2cccc3c2n(C)c(=O)n3C2CCC(=O)NC2=O)CCN1C[C@H]1CC[C@H](n2cc(-n3cc(-c4ccc5cc(C(N)=O)cnn45)nn3)c(C(F)F)n2)CC1 (some centres unmarked) [Example 96] | > 80% | < 0.5 nM | < 10 nM | > 70% |  |
